According to patent US9879036B2, “Mitochondrial aldehyde dehydrogenase-2 binding compounds and methods of use thereof” (Aviv Therapeutics, Inc., priority 2014, dated 2018):
Residue numbers refer to the chain shown, from its start.

Key:
Format in all cases: biochemical
[1] = target: T1, ALDH2 (Homo sapiens, UniProt P05091); test: ALDH2 activity with 20 μM of the compound (Table 3); settings: 20 μM compound
T1 construct: His-tag (N); made in house; host or cells: E. coli BL21
T1 sequence (P05091 18-517): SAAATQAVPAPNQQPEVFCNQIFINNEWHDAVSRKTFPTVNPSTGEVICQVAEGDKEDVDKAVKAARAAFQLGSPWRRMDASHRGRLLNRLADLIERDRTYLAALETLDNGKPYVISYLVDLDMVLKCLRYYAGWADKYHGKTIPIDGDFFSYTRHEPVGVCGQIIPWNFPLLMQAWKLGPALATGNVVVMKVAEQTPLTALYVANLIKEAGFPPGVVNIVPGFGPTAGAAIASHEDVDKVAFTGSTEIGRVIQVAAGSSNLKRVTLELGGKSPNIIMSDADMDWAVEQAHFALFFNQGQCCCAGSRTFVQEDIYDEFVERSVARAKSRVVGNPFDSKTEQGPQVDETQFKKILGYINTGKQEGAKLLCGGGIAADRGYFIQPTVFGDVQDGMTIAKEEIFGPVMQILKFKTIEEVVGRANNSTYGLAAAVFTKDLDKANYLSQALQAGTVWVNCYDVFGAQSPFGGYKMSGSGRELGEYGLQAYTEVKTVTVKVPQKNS
Protocol: (§1) ALDH2 catalyzes the oxidative reaction of substrate acetaldehyde to acetic acid using NAD^+ as a cofactor. Enzymatic activity, or catalytic rate, of aldehyde dehydrogenase (ALDH2) are measured spectrophotometrically at UV wavelength λ340 nm by the accumulation of reduced product NADH derived from NAD^+. Absorbance at λ340 nm is quantitatively proportional to the amount of NADH being produced over time (6.22 O.D. unit=1 mmol of NADH, measured in a 1-cm width standard cuvette). This method is well-established in the literature [e.g. Rex et al., Alcohol Clin. Exp. Res. 9, 147 (1985)].
as §1, with “can be” for “are”
(§2) ALDH2 catalyzes the oxidative reaction of substrate acetaldehyde to acetic acid using NAD^+ as a cofactor. Enzymatic activity, or catalytic rate, of aldehyde dehydrogenase (ALDH2) can be measured spectrophotometrically at UV wavelength λ340 nm by the accumulation of reduced product NADH derived from NAD^+. Because compounds of formula (I) are considered to be agonists or “activators” of ALDH2 the enzymatic activity measured will exceed 100% of the baseline enzymatic activity of the enzyme in its normal activation state. As the concentration of the compounds of formula (I) decreases from 20 micromolar to 0.16 micromolar in the presence of ALDH, a decrease in the activation of enzymatic activity is observed for the wild-type ALDH2*1/*1 and the heterozygous form ALDH2*1/*2.

[2] = target: T2, ALDH2*1/*2 (Homo sapiens, UniProt P05091, E504K); test: ALDH2 enzymatic activity, NADH accumulation at 340 nm, acetaldehyde substrate, heterozygous form; settings: relative to baseline enzymatic activity (100%); for activity at 2.5 µM: 2.5 μM compound; for activity at 5 µM: 5 μM compound; for activity at 10 µM: 10 μM compound; for activity at 20 µM: 20 μM compound
T2 construct: His-tag; made in house; host or cells: E. coli BL21 (pETDuet-1 co-expression)
T2 sequence (P05091 18-517): T1 sequence (P05091 18-517)
T2 sequence (P05091 18-517 E504K): T1 sequence (P05091 18-517) with E487K
Protocol: as §1
as §1, with “can be” for “are”
(§3) Cloning, expression and purification of human ALDH2 wild type and ALDH2*2 recombinant mutant enzymes: Full-length wild type human ALDH2 cDNA was purchased from ATCC (No. MGC-1806. GenBank ID: BC002967). The 18-amino acid mitochondria transport signal sequence was removed by PCR and cloned into the NheI/HindIII sites of a His-tag vector, pTrcHis, using standard molecular cloning techniques. The human ALDH2* cDNA construct containing the Asian E487K mutation was obtained by site-directed mutagenesis to create the E487K substitution of the wild type ALDH2. Both human clones were designed to express a recombinant protein with the His-tag at the N-terminus of the protein. For the co-expression experiments of human ALDH2 wild type and ALDH2*2 heterotetramers, a wild type ALDH2 gene and a ALDH2 E487K gene were inserted separately into the two multiple cloning sites of pETDuet-1 vector. (Novagen, CA, USA). All the vectors were transformed into BL21 E. coli host cells and subjected to 0.5 mM IPTG induction for protein expression at 30° C. Purifications of the recombinant proteins by affinity nickel columns (HisTrap, GE Healthy Science, USA) were carried out using standard protocols according to manufacturer's instructions (Novagen, USA).
as §2

[3] = target: T3, ALDH2*1/*1 (Homo sapiens, UniProt P05091); test: ALDH2 enzymatic activity, NADH accumulation at 340 nm, acetaldehyde substrate, wild type; settings: relative to baseline enzymatic activity (100%); for activity at 2.5 µM: 2.5 μM compound; for activity at 5 µM: 5 μM compound; for activity at 10 µM: 10 μM compound; for activity at 20 µM: 20 μM compound
T3 construct: His-tag (N); made in house; host or cells: E. coli BL21 (pTrcHis vector)
T3 sequence (P05091 18-517): T1 sequence (P05091 18-517)
Protocol: as §1
as §1, with “can be” for “are”
as §3, §2

Row | Compound | activity at 20 µM [1] [%] | activity at 2.5 µM [2] [%] | activity at 5 µM [2] [%] | activity at 10 µM [2] [%] | activity at 20 µM [2] [%] | activity at 2.5 µM [3] [%] | activity at 5 µM [3] [%] | activity at 10 µM [3] [%] | activity at 20 µM [3] [%]
1 | COc1ccc(CNC(=O)c2cc(-c3ccccc3CO)ncc2OCC2CC2)cc1F [AC3] | 150 to 250 | 180 | 245 | 310 | 376 | 150 | 195 | 220 | 319
2 | COc1ccc(CNC(=O)c2cc(-c3ccncc3CO)cnc2OCC2CC2)cc1F [AC12] | > 250 | 179 | 236 | 286 | 350 | 166 | 211 | 305 | 379
3 | COc1ccc(CNC(=O)c2cc(-c3ccccc3CO)cnc2OCC2CC2)cc1F [AC1, 2-(cyclopropylmethoxy)-N-(3-fluoro-4-methoxybenzyl)-5-(2-(hydroxymethyl)phenyl)nicotinamide] | > 250 | 220 | 294 | 383 | 453 | 175 | 242 | 288 | 412
4 | COc1ccc(CNC(=O)c2cc(-c3cscc3CO)cnc2OCC2CC2)cc1F [AC24] | > 250 | 149 | 234 | 269 | 216 | 175 | 248 | 321 | 428
5 | COc1ccc(CNC(=O)c2cc(-c3cccc(F)c3CO)ccc2OCC2CC2)cc1F [AC21] | > 250 | 110 | 198 | 247 | 250 | 161 | 209 | 272 | 370
6 | COc1ccc(CNC(=O)c2cc(-c3ccc(F)cc3CO)cnc2OCC2CC2)cc1F [AC4] | > 250 | 266 | 338 | 390 | 423 | 204 | 280 | 300 | 363
7 | COc1ccc(CNC(=O)c2cc(-c3cnccc3CO)ccc2OCC2CC2)cc1F [AC5] | > 250 | 318 | 382 | 428 | 504 | 266 | 330 | 352 | 487
8 | COc1ccc(CNC(=O)c2cc(-c3c[n+]([O-])ccc3CO)ccc2OCC2CC2)cc1F [AC13] | 150 to 250 | 146 | 195 | 247 | 296 | 164 | 168 | 215 | 237

Next, values leading:

Row | activity at 20 µM [1] [%] | activity at 2.5 µM [2] [%] | activity at 5 µM [2] [%] | activity at 10 µM [2] [%] | activity at 20 µM [2] [%] | activity at 2.5 µM [3] [%] | activity at 5 µM [3] [%] | activity at 10 µM [3] [%] | activity at 20 µM [3] [%] | Compound
9 | > 250 | 176 | 244 | 291 | 434 | 133 | 181 | 266 | 331 | COc1ccc(CNC(=O)c2cc(-c3cccnc3CO)ccc2OCC2CC2)cc1F [AC7]
10 | > 250 | 239 | 321 | 388 | 531 | 172 | 238 | 346 | 414 | COc1ccc(CNC(=O)c2cc(-c3cnccc3CO)cnc2OCC2CC2)cc1F [AC10]
11 | > 250 | 187 | 252 | 263 | 196 | 210 | 262 | 291 | 375 | COc1ccc(CNC(=O)c2cc(-c3ccc(F)cc3CO)ccc2OCC2CC2)cc1F [AC23]
12 | > 250 | 221 | 299 | 328 | 479 | 164 | 223 | 319 | 370 | COc1ccc(CNC(=O)c2cc(-c3ncccc3CO)cnc2OCC2CC2)cc1F [AC8]
13 | 150 to 250 | 103 | 121 | 157 | 194 | 134 | 138 | 162 | 189 | COc1ccc(CNC(=O)c2cc(-c3c(CO)ccc[n+]3[O-])ccc2OCC2CC2)cc1F [AC14, 2-(4-(cyclopropylmethoxy)-3-((3-fluoro-4-methoxybenzyl)carbamoyl)phenyl)-3-(hydroxymethyl)pyridine 1-oxide]
